The values that follow come from patent publication US20240174634A1, “Aldehyde Dehydrogenase Inhibitors and Their Therapeutic Use” (priority 2020, published 2024).

Structures are written as SMILES.

The target of the test is T1, ALDH1A3 (Homo sapiens, UniProt P47895).
T1 sequence (P47895 1-512): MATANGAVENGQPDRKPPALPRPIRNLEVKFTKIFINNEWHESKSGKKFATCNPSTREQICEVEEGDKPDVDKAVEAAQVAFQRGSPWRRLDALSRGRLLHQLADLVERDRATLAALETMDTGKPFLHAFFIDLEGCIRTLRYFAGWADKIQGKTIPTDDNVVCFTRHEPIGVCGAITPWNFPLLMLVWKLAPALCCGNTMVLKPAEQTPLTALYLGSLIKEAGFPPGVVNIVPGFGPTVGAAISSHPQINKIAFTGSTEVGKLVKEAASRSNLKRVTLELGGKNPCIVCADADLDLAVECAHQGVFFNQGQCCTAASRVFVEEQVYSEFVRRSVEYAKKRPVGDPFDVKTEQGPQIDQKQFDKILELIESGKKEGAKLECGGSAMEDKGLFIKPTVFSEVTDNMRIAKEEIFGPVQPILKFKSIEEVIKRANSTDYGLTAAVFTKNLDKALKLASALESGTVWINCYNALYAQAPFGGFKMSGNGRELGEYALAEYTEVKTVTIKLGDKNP
As to the kind of experiment: Primary biochemical assay, NAD(P)H-Glo Detection System. Also on record: His-tag; made in house; host or cells: E. coli Rosetta (DE3). The conditions noted are these: 30 min pre-incubation, propionaldehyde and NAD at Km. The source says: Cloning: Open reading frames corresponding to the protein coding sequences of full length human ALDH1A1 (Uniprot ID P00352), ALDH1A2 (094788) and ALDH1A3 (P47895) were polymerase chain reaction (PCR) amplified from human cDNA and inserted into the multi-cloning sites of the commercially available (Novagen) E. coli expression vectors pET47b (ALDH1A1, EcoRI restriction site; ALDH1A2, BamHI and EcoRI sites) or pET28a (ALDH1A3, NdeI and BamHI sites), using standard molecular genetic techniques. Recombinant DNA products were sequence verified prior to use in expression studies.
Expression: Expression constructs were transformed into the E. coli strain Rosetta (DE3) (Merck) and individual colonies used to inoculate 10 mL lysogen broth (LB) medium supplemented with kanamycin and chloramphenicol at 50 μg/mL and 34 μg/mL, respectively. Cultures were grown to saturation overnight at 37° C., prior to being used to sub-inoculate fresh 1 L LB medium cultures (plus antibiotics, as before). 1 L cultures were grown at 37° C., 200 rpm, throughout the day until the optical density at 600 nm (OD600) reached ˜0.8, at which point growth temperature was reduced to 18° C. and 1 mM isopropyl β-d-1-thiogalacto pyranoside (IPTG) added to induce protein expression.
Cultures were left overnight (at least 16 h) under these conditions and the following day harvested by centrifugation (4000 G, 10 minutes). Culture supernatant was discarded and cell pellets stored at −80° C. until further processing.
Purification: Cell pellets were thawed on ice, re-suspended in Ni Affinity Buffer A (20 mM HEPES pH 7.5, 300 mM NaCl, 20 mM imidazole, 1 mM tris(2-carboxyethyl)phosphine (TCEP)) with protease inhibitors (cOmplete Ultra protease inhibitor, Roche), and lysed by sonication. Lysates were clarified by centrifugation at 18,000 G, 4° C., for 40 minutes, and loaded directly onto a pre-equilibrated (Buffer A) 5 mL HisTrap Fast Flow column (GE Healthcare) by way of an AKTA Fast Protein Liquid Chromatography (FPLC) system. The column was sequentially treated with 6 column volumes (CV) 100% Buffer A, 8 CV of 90% Buffer A:10% Buffer B (20 mM 4-(2-hydroxyethyl)-1-piperazineethanesulfonic acid (HEPES) pH 7.5, 300 mM NaCl, 500 mM imidazole, 1 mM TCEP) and finally a linear gradient from 10-70% Buffer B over 8 CV to elute recombinant His-tagged protein. Relevant fractions (as measured by 280 nm absorbance) collected during elution were pooled and subjected to further purification by size exclusion chromatography (Superdex 200 26/600, GE Healthcare, running buffer 20 mM 2-(carbamoylmethylamino)ethanesulfonic acid (ACES) pH 7.5, 1 mM TCEP). Relevant fractions from this step were pooled, aliquoted, and stored at −80° C. until required for compound profiling assays.
Materials: ALDH2 was purchased from Abnova. Tris(hydroxymethyl)aminomethane (Tris) was purchased from MP Biomedicals. TCEP, ethylenediaminetetraacetic acid (EDTA), propionaldehyde, DMSO and Tween-20 were purchased from Sigma. Nicotinamide adenine dinucleotide (NAD) was obtained from Abcam. The NAD(P)H-Glo™ Detection System was purchased from Promega. White, non-binding surface, 384 well plates were supplied by Corning (#3574).
Method: Inhibition of ALDH1A3 was assessed using the NAD(P)H-Glo™ Detection System (Cat. No. G9062) from Promega. This assay detects the production of NADH from NAD by ALDH1A3 via the coupled enzymatic conversion of a proluciferin reductase substrate to generate a luminescent signal. Inhibition of ALDH1A3 by small molecule inhibitors will result in reduction or abrogation of luminescence signal increase above background. Inhibition of ALDH1A1, ALDH1A2 and ALDH2 (selectivity assays) were assessed using the same assay.
Compounds were dosed into Corning 384 well assay plates using an Echo acoustic dispenser to give 10 point curves in a 3-fold dilution series. Compounds were dispensed from a 20 mM DMSO stock and initially screened at a top concentration of 20 μM (ALDH1A3) or 250 μM (ALDH1A1, ALDH1A2 & ALDH2). […]
Turning to `CC1(c2ccccc2)COCCN1CCOc1ccc2c(c1)CCC(=O)N2` (stereo not drawn) [ALDHI-2040, 6-[2-(3-methyl-3-phenyl-morpholin-4-yl)ethoxy]-3,4-dihydro-1H-quinolin-2-one], the IC50 (in general, the concentration needed to halve the response being measured) fell in the range of 100 to 1000 nM.

The compound `O=C1CCc2cc(OCCN3CCCC3c3cccnc3)ccc2N1` (stereo not drawn) [ALDHI-2005, 6-[2-[2-(3-pyridyl)pyrrolidin-1-yl]ethoxy]-3,4-dihydro-1H-quinolin-2-one] showed an IC50 of less than 100 nM.

With `CC1(c2cccc(F)c2)CCCN1CCOc1ccc2c(c1)CCC(=O)N2` (stereo not drawn) [ALDHI-2037, 6-[2-[2-(3-fluorophenyl)-2-methyl-pyrrolidin-1-yl]ethoxy]-3,4-dihydro-1H-quinolin-2-one], the IC50 was less than 100 nM.

`O=C1CCc2cc(OCCN3CCCC3c3ccccc3)ccc2N1` (stereo not drawn) [ALDHI-2019, 6-[2-(2-phenylpyrrolidin-1-yl)ethoxy]-3,4-dihydro-1H-quinolin-2-one]: the IC50 was in the range of 100 to 1000 nM.

With `O=C1CCc2cc(OCCN(CCO)Cc3cccc(F)c3)ccc2N1` [ALDHI-3002, 6-[2-[(3-fluorophenyl)methyl-(2-hydroxyethyl)amino]ethoxy]-3,4-dihydro-1H-quinolin-2-one], the IC50 is less than 100 nM.

For the compound `O=C1CCc2cc(OCCN3CCCC3c3cc(F)cc(F)c3)ccc2N1` (stereo not drawn) [ALDHI-2032, 6-[2-[2-(3,5-difluorophenyl)pyrrolidin-1-yl]ethoxy]-3,4-dihydro-1H-quinolin-2-one], the IC50 is less than 100 nM.

The compound `O=C1CSc2cc(OCCN3CCCC3c3cccnc3)ccc2N1` (stereo not drawn) [ALDHI-2028, 7-[2-[2-(3-pyridyl)pyrrolidin-1-yl]ethoxy]-4H-1,4-benzothiazin-3-one] returned an IC50 of less than 100 nM.

Regarding `CC1CN(CCOc2ccc3c(c2)CCC(=O)N3)C(c2ccccc2)CO1` (mixture of isomers) [ALDHI-2042, 6-[2-(2-methyl-5-phenyl-morpholin-4-yl)ethoxy]-3,4-dihydro-1H-quinolin-2-one], the IC50 is 100 to 1000 nM.

Turning to `O=C1CCc2cc(NC(=O)c3scnc3-c3ccccc3Cl)ccc2N1` [ALDHI-1012, 4-(2-chlorophenyl)-N-(2-oxo-3,4-dihydro-1H-quinolin-6-yl)thiazole-5-carboxamide], the IC50 lay in the range of 1000 to 10000 nM.

On to `O=C1CCc2cc(OCCN3CCC[C@@H]3c3cccc(F)c3)ccc2N1` [ALDHI-2007, 6-[2-[(2R)-2-(3-fluorophenyl)pyrrolidin-1-yl]ethoxy]-3,4-dihydro-1H-quinolin-2-one], for which the IC50 is less than 100 nM.

`O=C1CCc2cc(OCCN3C(=O)CCC3c3ccccc3)ccc2N1` (stereo not drawn) [ALDHI-2051, 6-[2-(2-oxo-5-phenyl-pyrrolidin-1-yl)ethoxy]-3,4-dihydro-1H-quinolin-2-one]: the IC50 was less than 100 nM.

Compound `O=C1CCc2cc(OCCN3CCC[C@H]3c3cccc(F)c3)ccc2N1` [ALDHI-2018, 6-[2-[(2S)-2-(3-fluorophenyl)pyrrolidin-1-yl]ethoxy]-3,4-dihydro-1H-quinolin-2-one] showed an IC50 of less than 100 nM.

In the case of `Cc1ccc(C2CCCN2CCOc2ccc3c(c2)CCC(=O)N3)cc1` (stereo not drawn) [ALDHI-2010, 6-[2-[2-(p-tolyl)pyrrolidin-1-yl]ethoxy]-3,4-dihydro-1H-quinolin-2-one], the IC50 was less than 100 nM.

`O=C1CCc2cc(OCCN3CC(O)CC3c3cccc(F)c3)ccc2N1` (mixture of isomers) [ALDHI-2035, 6-[2-[2-(3-fluorophenyl)-4-hydroxy-pyrrolidin-1-yl]ethoxy]-3,4-dihydro-1H-quinolin-2-one] returned an IC50 of less than 100 nM.

As for `Cc1nc(C2CCCN2CCOc2ccc3c(c2)CCC(=O)N3)cs1` (stereo not drawn) [ALDHI-2033, 6-[2-[2-(2-methylthiazol-4-yl)pyrrolidin-1-yl]ethoxy]-3,4-dihydro-1H-quinolin-2-one], the IC50 was in the range of 100 to 1000 nM.

Take `O=C1CCc2cc(OCCN3CCOCC3c3cccc(F)c3)ccc2N1` (stereo not drawn) [ALDHI-2031, 6-[2-[3-(3-fluorophenyl)morpholin-4-yl]ethoxy]-3,4-dihydro-1H-quinolin-2-one]: the IC50 is less than 100 nM.

In turn, `O=C1CCc2cc(NC(=O)c3sc(N4CC(O)C4)nc3-c3cccc(F)c3)ccc2N1` [ALDHI-1004, 4-(3-fluorophenyl)-2-(3-hydroxyazetidin-1-yl)-N-(2-oxo-3,4-dihydro-1H-quinolin-6-yl)thiazole-5-carboxamide] displayed an IC50 of less than 100 nM.

Compound `O=C1COc2cc(OCCN3CCCC3c3cccc(F)c3)ccc2N1` (stereo not drawn) [ALDHI-2009, 7-[2-[2-(3-fluorophenyl)pyrrolidin-1-yl]ethoxy]-4H-1,4-benzoxazin-3-one] showed an IC50 of 100 to 1000 nM.

Compound `O=C1CCc2cc(NC(=O)c3scnc3-c3ccc(F)cc3)ccc2N1` [ALDHI-1017, 4-(4-fluorophenyl)-N-(2-oxo-1,2,3,4-tetrahydroquinolin-6-yl)thiazole-5-carboxamide] gave an IC50 of less than 100 nM.

For `O=C1CCc2cc(OCCn3nccc3-c3cccc(F)c3)ccc2N1` [ALDHI-2023, 6-[2-[5-(3-fluorophenyl)pyrazol-1-yl]ethoxy]-3,4-dihydro-1H-quinolin-2-one], the concentration for half-maximal inhibition (IC50) is less than 100 nM.

For the compound `O=C1CCc2cc(NC(=O)c3ocnc3-c3cccc(F)c3)ccc2N1` [ALDHI-1019, 4-(3-fluorophenyl)-N-(2-oxo-3,4-dihydro-1H-quinolin-6-yl)oxazole-5-carboxamide], the IC50 is 100 to 1000 nM.

The compound `O=C1CSc2cc(OCCN3CCCC3c3ccncc3)ccc2N1` (stereo not drawn) [ALDHI-2029, 7-[2-[2-(4-pyridyl)pyrrolidin-1-yl]ethoxy]-4H-1,4-benzothiazin-3-one] yielded an IC50 of 100 to 1000 nM.

`O=C1CSc2cc(OCCN3CCCC3c3ccccn3)ccc2N1` (stereo not drawn) [ALDHI-2027, 7-[2-[2-(2-pyridyl)pyrrolidin-1-yl]ethoxy]-4H-1,4-benzothiazin-3-one] yielded a half-inhibitory concentration (IC50) of 100 to 1000 nM.

`COc1cccc(C2CCCN2CCOc2ccc3c(c2)CCC(=O)N3)c1` (stereo not drawn) [ALDHI-2034, 6-[2-[2-(3-methoxyphenyl)pyrrolidin-1-yl]ethoxy]-3,4-dihydro-1H-quinolin-2-one] gave an IC50 of 100 to 1000 nM.

Consider `O=C1CCc2cc(OCCN3CCCC3c3ccsc3)ccc2N1` (stereo not drawn) [ALDHI-2014, 6-[2-[2-(3-thienyl)pyrrolidin-1-yl]ethoxy]-3,4-dihydro-1H-quinolin-2-one], for which the IC50 was less than 100 nM.

`CC1(C)Oc2cc(OCCN3CCCC3c3cccc(F)c3)ccc2NC1=O` (stereo not drawn) [ALDHI-2043, 7-[2-[2-(3-fluorophenyl)pyrrolidin-1-yl]ethoxy]-2,2-dimethyl-4H-1,4-benzoxazin-3-one] came in with an IC50 of 100 to 1000 nM.

Regarding `O=C1CCc2cc(OCCN3CCCC3c3ccccc3F)ccc2N1` (stereo not drawn) [ALDHI-2002, 6-[2-[2-(2-fluorophenyl)pyrrolidin-1-yl]ethoxy]-3,4-dihydro-1H-quinolin-2-one], the IC50 was less than 100 nM.
